Data from BindingDB's records for patent US11111270 (Sanford Burnham Prebys Medical Discovery Institute, 2021).

Molecular target: T1, E3 ubiquitin-protein ligase XIAP [163-230]/[26-93] (Homo sapiens, UniProt P98170+P98170)
T1 construct: 163-230; 26-93
Assay: Biological Assay
Experimental: 5000 PPC-1 cells were plated and grown overnight. Compounds were plated and 4 hrs later, TRAIL was added to half of the plate while RPMI was added to the other half of the plate as a control. Plates were return to the incubator for 24 hrs. Plates were removed from the incubator and placed on the bench for 30 min and then 25 uL of Cell Titer Glo were added per well. Plates were placed on a rocker and then read on a luminometer. 5000 MDA-MB-231 cells were plated per well. Compound was added and 4 hrs later, TRAIL was added at 5 ng/mL; RPMI was added for a minus TRAIL control. Plates were incubated an additional 24 hrs, removed to the bench for 30 min, and then 25 uL of cell titer glo was added per well. Plates were placed on a rocker and read on a luminometer. Data were fit using PRISM.

T1 sequence (P98170 26-93): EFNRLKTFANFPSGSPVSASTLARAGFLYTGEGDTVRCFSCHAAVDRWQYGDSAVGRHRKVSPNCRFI
T1 sequence (P98170 163-230): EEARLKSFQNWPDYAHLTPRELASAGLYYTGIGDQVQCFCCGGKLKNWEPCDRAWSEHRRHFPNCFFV

In the case of CN[C@@H](C)C(=O)N[C@H]1CCCNC2CCC(C(=O)N[C@@H]3CCCc4ccccc43)N2C1=O (stereo partly specified) [US11111270, Compound 16], the Ki is reported as “in the range around 37.5 µM”.
